Several values for one entry are separate records, joined by “and”; a condition that tells them apart may be missing. Identical values can stand only once.
Key:
[1] = xn = mol fraction of the nth substance listed; conditions: Liquid, Other PVT measurement, x2 = 0
[2] = Liquid, Other PVT measurement

CCO [ethanol] + CCCCn1cc[n+](C)c1.F[B-](F)(F)F
mass density [kg/m3], [1]
Conditions	200 kPa	600 kPa	1000 kPa	1400 kPa	1800 kPa	2000 kPa
313.15 K	770	770	770	771	771	772
353.15 K	734	734	735	735	736	738
393.15 K	–	691	692	693	694	694
433.15 K	–	–	–	638	639	639

CCO [ethanol]
mass density [kg/m3], [2]
Conditions	200 kPa	600 kPa	1000 kPa	1400 kPa	1800 kPa	2000 kPa
313.15 K	770	770	770	771	771	772
353.15 K	734	734	735	735	736	738
393.15 K	–	691	692	693	694	694
433.15 K	–	–	–	638	639	639

O [water]
[2]
Conditions	mass density [kg/m3]
313.15 K, 200 kPa	993
313.15 K, 2000 kPa	995
353.15 K, 200 kPa	975
353.15 K, 400 kPa	975
373.15 K, 800 kPa	963
373.15 K, 1200 kPa	963
393.15 K, 200 kPa	949
393.15 K, 400 kPa	949
393.15 K, 1600 kPa	950
393.15 K, 2000 kPa	950
433.15 K, 800 kPa	912
433.15 K, 1200 kPa	912
473.15 K, 1600 kPa	871
473.15 K, 2000 kPa	871

CC#N [acetonitrile]
mass density [kg/m3], [2]
Conditions	200 kPa	600 kPa	1000 kPa	1400 kPa	1800 kPa	2000 kPa
313.15 K	755	755	756	756	757	757
353.15 K	710	711	711	711	712	713
393.15 K	–	664	664	665	666	666
433.15 K	–	–	611	612	614	614
473.15 K	–	–	–	–	550	552

CCCCn1cc[n+](C)c1.F[B-](F)(F)F [1-butyl-3-methylimidazolium tetrafluoroborate]
mass density, [2]
Conditions	100 kPa	200 kPa	600 kPa	1000 kPa	1400 kPa	1800 kPa	2000 kPa
293.15 K	1198 kg/m3	–	–	–	–	–	–
313.15 K	1183 kg/m3	1185 kg/m3	1186 kg/m3	1186 kg/m3	1186 kg/m3	1187 kg/m3	1186.93 kg/m3 and 1187 kg/m3
353.15 K	–	1159 kg/m3	1160 kg/m3	1160 kg/m3	1160 kg/m3	1161 kg/m3	1160.82 kg/m3 and 1161 kg/m3
393.15 K	–	–	1135 kg/m3	1135 kg/m3	1135 kg/m3	1136 kg/m3	1135.92 kg/m3 and 1136 kg/m3
433.15 K	–	–	–	1112 kg/m3	1112 kg/m3	1113 kg/m3	1113 kg/m3
473.15 K	–	–	–	–	–	1086 kg/m3	1087 kg/m3

CC#N [acetonitrile] + CCCCn1cc[n+](C)c1.F[B-](F)(F)F
mass density [kg/m3], [1]
Conditions	200 kPa	600 kPa	1000 kPa	1400 kPa	1800 kPa	2000 kPa
313.15 K	755	755	756	756	757	757
353.15 K	710	711	711	711	712	713
393.15 K	–	664	664	665	666	666
433.15 K	–	–	611	612	614	614
473.15 K	–	–	–	–	550	552
